The record followed here is patent US10287234B2, “Triglyceride and use thereof” (NITTO PHARMACEUTICAL INDUSTRIES, LTD., priority 2015, dated 2019).

The nature of this data set: State (liquid or solid) at standard temperature by visual observation. The data set is classed as physicochemical. How it is done:
Whether compounds (I) of the present invention of Examples 1-3, trilinolein of Comparative Example 1 and HYA of Comparative Example 2 are liquid or solid at standard temperature (about 20° C.) was confirmed by visual observation.

`CCCCC/C=C\C/C=C\CCCCCCCC(=O)OCC(COC(=O)CCCCCCCCC(O)C/C=C\CCCCC)OC(=O)CCCCCCC/C=C\C/C=C\CCCCC` (stereo not drawn) [Ex. 1, Di(cis, cis-9,12-octadecadienoyl)(10-hydroxy-cis-12-octadecenoyl)glycerol]: the “State at standard temperature (about 20° C.)” value (“State at standard temperature” for short) is given as “liquid”.

`CCCCC/C=C\C/C=C\CCCCCCCC(=O)OC(COC(=O)CCCCCCCCC(O)C/C=C\CCCCC)COC(=O)CCCCCCCCC(O)C/C=C\CCCCC` (stereo not drawn) [Ex. 2, Di(10-hydroxy-cis-12-octadecenoyl)(cis, cis-9,12-octadecadienoyl)glycerol]: the “State at standard temperature” value was “liquid”.

In the case of `CCCCC/C=C\C/C=C\CCCCCCCC(=O)OCC(COC(=O)CCCCCCC/C=C\C/C=C\CCCCC)OC(=O)CCCCCCC/C=C\C/C=C\CCCCC` [compound 1, Trilinolein, reference compound], the “State at standard temperature” value is “liquid”.

As to `CCCCC/C=C\CC(O)CCCCCCCCC(=O)O` (stereo not drawn) [compound 2, 10-Hydroxy-cis-12-octadecenoic Acid, reference compound], the “State at standard temperature” value is reported as “solid”.

For the compound “Tri(10-hydroxy-cis-12-octadecenoyl)glycerol [Ex. 3]”, the “State at standard temperature” value was “liquid”.
